These results are taken from US6392032B1, “Heavily fluorinated sugar analogs” (Board of Regents University of Nebraska-Lincoln, priority 1996, dated 2002).

The data set in a line: Qualitative solubility in solvents. The data set is classed as physicochemical.

Regarding `OCC12OC(O)C1C(F)(F)C(F)(F)C2(F)F` (centres unmarked) [Compound 6, 1-Hydroxy-5-(5′-hydroxymethyl)-2,2,3,3,4,4-hexafluorooxane], the Qualitative solubility result is on record as “insoluble” (in CHCl3 and other solvents of lower polarity); “soluble” (in acetone, EtOAc, ether, and water).
